Measured values taken from patent US5362751A, “Tracheobronchodilator using 16-substituted PGEs” (priority 1988, dated 1994).
Where two headings read alike, the source gives them in different places.

How the values were obtained:
airway resistance = assay: Inhibition of increase of airway resistance due to histamin in anesthetized guinea pig; assay type: in vivo; conditions: intravenous, histamin 3 μg/kg one minute later
Protocol: A male guinea pig weighing 300-400 g was intraperitoneally anesthetized with urethane 1.5 g/kg. The test animal was cannulated through the trachea, and then bromopanchlonium was intravenously administered at 0.3 mg/kg to make the test animal inactivate. The animal was respired using a vespirater for a small animal. The airway resistance was recorded on a recorder using a bronchospasin transducer. The administration of the test drug was made through a cannula into the jugular vein. The histamin was administered three times of each 3 μg/kg at 30 minutes intervals, and the increase of the airway resistance was determined. After the determination the test drug was intervenously administered, and then 4th administration of histamin was done after one minute. The increase of airway resistance due to histamin before and after the administration of the test drug was determined, from which inhibition rate of the increase due to the test drug was evaluated.

trachea of humans = assay: Stimuli of trachea by spraying inhalation in humans; assay type: in vivo, human; conditions: 10 μg/ml solution sprayed at 2 ml/min, ultrasonic inhaler
Protocol: The strength of stimuli to trachea of humans was evaluated by actual spraying inhalation.
Each test drug was dissolved with a small amount of ethyl alcohol, to which distilled water was added to prepare a solution containing test drug at a concentration of 10 μg/ml. Four panels (K, D, T and O) were sprayed into their throats with the each test solution at a rate of 2 ml/min using an ultrasonic inhaler (NE-U10B available from Omlon K.K.), and the strength of the stimuli was observed.

tracheal smooth muscle = assay: Tracheaectasy: inhibition of histamin-induced contraction of circular slices of guinea pig trachea in Magnus tube; conditions: contraction by 5.4×10^-4 M histamin, cumulative administration; for IC20: read-out: IC20 (concentration exhibiting the inhibition rate of 20%); for IC50: read-out: IC50 (concentration exhibiting the inhibition rate of 50%)
Protocol: A male guinea pig weighing about 300 g was beaten to death, and immediately drew the blood by cutting its arteriae femoral as pouring water. A trachea was picked out and cut lengthwise at the opposite side of tracheal smooth muscle and cut into circular slices between cartilages. The obtained seven circular slices of the trachea were tied like as a chain with a thread, and hung into Magnus tube.
After the circular slices of trachea were held for 60-90 minutes until it became stable (disappearence of convulsion), they were administered with 5.4×10^-4 M of histamin to be contracted. After the contraction reached to maximum, each test drug was cumulatively administered so as to inhibit the contraction caused by the histamin.

IC50 (tracheal smooth muscle; Cavia porcellus) [nM] | SMILES | IC20 (tracheal smooth muscle; Cavia porcellus) [nM] | further results
 | CCCCC(F)(F)C(=O)CC[C@H]1[C@H](O)CC(=O)[C@@H]1C/C=C\CCCC(=O)O [13,14-dihydro-15-keto-16,16-difluoro-PGE2] |  | inhibition rate of increase of airway resistance (airway resistance; dose 1 μg/kg): 42%; inhibition rate of increase of airway resistance (airway resistance; dose 3 μg/kg): 100%
 | CCCCC(C)C(=O)CC[C@H]1[C@H](O)CC(=O)[C@@H]1CC(=O)CCCCC(=O)OC (stereo partly shown) [Test drug 9, 13,14-dihydro-6,15-diketo-16R,S-methyl-PGE1 methyl ester] |  | strength of stimuli to trachea, panel D (trachea of humans; panel D): -; strength of stimuli to trachea, panel K (trachea of humans; panel K): -; strength of stimuli to trachea, panel O (trachea of humans; panel O): -; strength of stimuli to trachea, panel T (trachea of humans; panel T): -
 | CCCCC[C@H](O)/C=C/[C@H]1[C@H](O)CC(=O)[C@@H]1C/C=C\CCCC(=O)O [Test drug 57, (z)-7-{(1R,2R,3R)-3-hydroxy-2-[(E)-(3S)-3-hydroxy-1-octenyl]-5-oxo-cyclopentyl}-hept-5-enoic acid, reference compound] |  | inhibition rate of increase of airway resistance (airway resistance; dose 3 μg/kg): 92%
 | CCCCC(C)C(=O)CCC1C(O)CC(=O)C1CC(=O)CCCCC(=O)OC (stereo not shown) [compound 9] |  | IC20 (tracheal smooth muscle): 100 nM; IC50 (tracheal smooth muscle): 400 nM
 | CCCCC(C)C(=O)CCC1C(O)CC(=O)C1CC(=O)CCCCC(=O)OCC (stereo not shown) [compound 10] |  | IC20 (tracheal smooth muscle): 100 nM; IC50 (tracheal smooth muscle): 600 nM
 | CCCCC(C)(C)C(=O)CC[C@H]1[C@H](O)CC(=O)[C@@H]1CC(=O)CCCCC(=O)OCC [compound 11] |  | IC20 (tracheal smooth muscle): 800 nM; IC50 (tracheal smooth muscle): 4000 nM
 | COC(=O)CCCCC(=O)CC1C(=O)CC(O)C1CCC(=O)CCCC(C)C (stereo not shown) [compound 13] |  | IC20 (tracheal smooth muscle): 1000 nM; IC50 (tracheal smooth muscle): 30000 nM
 | CCOC(=O)CCCCC(=O)CC1C(=O)CC(O)C1CCC(=O)CCCC(C)C (stereo not shown) [compound 14] |  | IC20 (tracheal smooth muscle): 900 nM; IC50 (tracheal smooth muscle): 30000 nM
 | CCCCCCC(=O)CC[C@H]1[C@H](O)CC(=O)[C@@H]1CC(=O)CCCCC(=O)OCC [compound 15] |  | IC20 (tracheal smooth muscle): 500 nM; IC50 (tracheal smooth muscle): 4000 nM
 | CCCCCC(=O)CC[C@H]1[C@H](O)CC(=O)[C@@H]1C/C=C\CC(C)CC(=O)OC (stereo partly shown) [compound 25] |  | IC20 (tracheal smooth muscle): 40000 nM
 | CCCCCC(=O)CCC1C(O)CC(=O)C1CC=CCC(C)CC(=O)OCC (stereo not shown) [compound 26] |  | IC20 (tracheal smooth muscle): 1000 nM; IC50 (tracheal smooth muscle): 7000 nM
 | CCCCC(C)C(=O)CC[C@H]1[C@H](O)CC(=O)[C@@H]1C/C=C\CCCC(=O)OC (stereo partly shown) [compound 27] |  | IC20 (tracheal smooth muscle): 80 nM; IC50 (tracheal smooth muscle): 400 nM
 | CCCCC(C)C(=O)CCC1C(O)CC(=O)C1CC=CCCCC(=O)OCC (stereo not shown) [compound 28] |  | IC20 (tracheal smooth muscle): 700 nM; IC50 (tracheal smooth muscle): 7000 nM
 | CCCCC(C)C(=O)CC[C@H]1[C@H](O)CC(=O)[C@@H]1C/C=C\CC(C)CC(=O)OC (stereo partly shown) [compound 29] |  | IC20 (tracheal smooth muscle): 600 nM; IC50 (tracheal smooth muscle): 7000 nM
 | CCCCC(C)(C)C(=O)CC[C@H]1[C@H](O)CC(=O)[C@@H]1C/C=C\CCCC(=O)OC [compound 30] |  | IC20 (tracheal smooth muscle): 600 nM; IC50 (tracheal smooth muscle): 2000 nM
 | CCCCC(C)(C)C(=O)CCC1C(O)CC(=O)C1CC=CCCCC(=O)OCC (stereo not shown) [compound 31] |  | IC20 (tracheal smooth muscle): 400 nM; IC50 (tracheal smooth muscle): 2000 nM
20000 | CCCCC(F)C(=O)CC[C@H]1[C@H](O)CC(=O)[C@@H]1C/C=C\CCCC(=O)OCC (stereo partly shown) [compound 35] | 900 | 
5000 | CCCCCC(F)C(=O)CC[C@H]1[C@H](O)CC(=O)[C@@H]1C/C=C\CCCC(=O)OC (stereo partly shown) [compound 36] | 500 | 
8000 | CCCCC(F)C(=O)CC[C@H]1[C@H](CC)CC(=O)[C@@H]1C/C=C\CCCC(=O)OCC (stereo partly shown) [compound 37] | 400 | 
7000 | CCCCCC(=O)CC[C@H]1[C@H](C)CC(=O)[C@@H]1C/C=C\CCCC(=O)OCC [compound 38] | 600 | 
60000 | CCC[C@H](C)CC(=O)CC[C@H]1[C@H](O)CC(=O)[C@@H]1C/C=C\CCCC(=O)OC [compound 39] | 3000 | 
40000 | COC(=O)CCC/C=C\C[C@H]1C(=O)C[C@@H](O)[C@@H]1CCC(=O)CCCC(C)C [compound 40] | 2000 | 
 | CCOC(=O)CCC/C=C\C[C@H]1C(=O)C[C@@H](O)[C@@H]1CCC(=O)CCCC(C)C [compound 41] | 4000 | 

IC50 (tracheal smooth muscle; Cavia porcellus) [nM] | SMILES | IC20 (tracheal smooth muscle; Cavia porcellus) [nM] | further results
 | COCCCCCC(=O)CC[C@H]1[C@H](O)CC(=O)[C@@H]1C/C=C\CCCC(=O)OC [compound 42] | 10000 | 
 | COCCCCCC(=O)CC[C@H]1[C@H](O)CC(=O)[C@@H]1C/C=C\CC(C)CC(=O)OC (stereo partly shown) [compound 44] | 10000 | 
10000 | COCCCCC(C)(C)C(=O)CC[C@H]1[C@H](O)CC(=O)[C@@H]1C/C=C\CCCC(=O)OC [compound 45] | 2000 | 
 | COCCCCCC(=O)CC[C@H]1[C@H](O)CC(=O)[C@@H]1CC#CCCCC(=O)OC [compound 46] | 10000 | 
3000 | COCCCC(=O)CC[C@H]1[C@H](O)CC(=O)[C@@H]1C/C=C\CCCC(=O)OC [compound 47] | 600 | 
 | CC(C)=CCCCCC(=O)CC[C@H]1[C@H](O)CC(=O)[C@@H]1C/C=C\CCCC(=O)O [compound 48] | 10000 | 
 | COC(=O)CCC/C=C\C[C@H]1C(=O)C[C@@H](O)[C@@H]1CCC(=O)CCCCC=C(C)C [compound 49] | 7000 | 
 | CCCCCCCC(=O)CC[C@H]1[C@H](O)CC(=O)[C@@H]1C/C=C\CCCC(=O)OC [compound 50] | 20000 | 
10000 | CCCCCCCC(=O)CC[C@H]1[C@H](O)CC(=O)[C@@H]1C/C=C\CCCC(=O)OCC [compound 51] | 1000 | 
 | CCCCCCCC(=O)CC[C@H]1[C@H](C)CC(=O)[C@@H]1C/C=C\CCCC(=O)OC [compound 52] | 1000 | 
 | CCCCCCCCC(=O)CC[C@H]1[C@H](O)CC(=O)[C@@H]1C/C=C\CCCC(=O)OC [compound 53] | 10000 | 
30000 | CCCCCC(=O)/C=C/[C@H]1[C@H](O)CC(=O)[C@@H]1C/C=C\CCCC(=O)O [compound 54] | 8000 | 
10000 | CCCCC(F)C(=O)/C=C/[C@H]1[C@H](O)CC(=O)[C@@H]1C/C=C\CCCC(=O)OC (stereo partly shown) [compound 55] | 2000 | 
80 | CCCCC[C@H](O)/C=C/[C@H]1[C@H](O)CC(=O)[C@@H]1CCCCCCC(=O)O [compound 56] | 2 | 
100 | CCCCC[C@H](O)/C=C/[C@H]1[C@H](O)CC(=O)[C@@H]1C/C=C\CCCC(=O)O [compound 57] | 10 | 
30000 | CCC[C@H](C)CC(=O)CC[C@H]1[C@H](O)CC(=O)[C@@H]1C/C=C\CCCC(=O)OCC [compound 58] | 1000 | 
4000 | CCCCCCC(=O)CC[C@H]1[C@H](O)CC(=O)[C@@H]1CCCCCCC(=O)O [compound 59] | 1000 | 
7000 | CCCCC(F)C(=O)/C=C/[C@H]1[C@H](O)CC(=O)[C@@H]1C/C=C\CCCC(=O)O (stereo partly shown) [compound 60] | 3000 | 
2500 | CCC[C@H](C)CC(=O)/C=C/[C@H]1[C@H](O)CC(=O)[C@@H]1C/C=C\CCCC(=O)OCC [compound 61] | 700 | 
 | CCCCC(F)C(=O)CC[C@H]1[C@H](O)CC(=O)[C@@H]1CCCCCCC(=O)O (stereo partly shown) [compound 62] | 4000 | 
 | CCOC(=O)CCCCC(=O)C[C@H]1C(=O)C[C@@H](O)[C@@H]1CCC(=O)CCC(C)CC (stereo partly shown) [compound 63] | 10000 | 
1000 | CCCCC(C)C(=O)CC[C@H]1[C@H](O)CC(=O)[C@@H]1CCCCCCC(=O)OC (stereo partly shown) [compound 64] | 300 | 
